What was measured:
[1] = biological target: T1, Lycopene beta-cyclase (Pantoea ananas) (UniProt P21687); experiment: Inhibition of Pantoea ananatis lycopene cyclase assessed as residual enzyme activity at 0.5 mM
T1 sequence (whole entry): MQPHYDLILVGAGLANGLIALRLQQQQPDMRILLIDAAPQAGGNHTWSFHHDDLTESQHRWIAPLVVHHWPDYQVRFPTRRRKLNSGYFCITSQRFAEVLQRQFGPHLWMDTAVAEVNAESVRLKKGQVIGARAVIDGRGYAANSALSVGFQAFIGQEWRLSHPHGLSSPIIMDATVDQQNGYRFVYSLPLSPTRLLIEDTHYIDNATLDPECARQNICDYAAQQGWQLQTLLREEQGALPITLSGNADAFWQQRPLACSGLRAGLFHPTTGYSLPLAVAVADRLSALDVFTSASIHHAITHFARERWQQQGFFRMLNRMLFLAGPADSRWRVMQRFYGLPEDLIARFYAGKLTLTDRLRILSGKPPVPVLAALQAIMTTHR

[2] = biological target: T1, Lycopene beta-cyclase (Pantoea ananas); experiment: Inhibition of Pantoea ananatis lycopene cyclase assessed as residual enzyme activity at 10 mM
Lycopene beta-cyclase = biological target: T2, Lycopene beta-cyclase (Pantoea ananas, UniProt P21687); experiment: Inhibition of Pantoea ananatis lycopene cyclase; conditions: read-out: I50
T2 sequence (P21687 whole entry): T1 sequence (whole entry)

NC(=O)CI
Activity [1]: 87%

CN1CCC[C@H]1c1cccnc1 [NICOTINE]
Activity [2]: 64% | IC50 (Lycopene beta-cyclase): 4.8 µM

Cc1cc(OC(=O)N2CCCCC2)c(C(C)C)cc1[N+](C)(C)C
Activity [2]: 36%

CC(=O)C(C)=O
Activity [1]: 90%

O=CC(=O)c1ccccc1
Activity [1]: 92%

CCN(CC)CCOc1ccc(C)cc1
IC50 (Lycopene beta-cyclase): 12 µM

CCN1C(=O)C=CC1=O
Activity [1]: 83%
